Publication PMC6232370, “Metabolism and Bioactivation of Corynoline With Characterization of the Glutathione/Cysteine Conjugate and Evaluation of Its Hepatotoxicity in Mice” (Frontiers in Pharmacology, 2018)

Tests used:
[1] = Tissue distribution of CRL in mice; assay type: in vivo; conditions: 250 mg/kg intragastric
Procedure: Thirty BALB/c male mice were fasted overnight but allowed access to water before drug administration. Five groups of mice (six mice per group) were intragastric administered a single dose of 250 mg/kg CRL. The mice in five groups were euthanized by decapitation at pre-dose, 0.5, 2, 4, and 8 h after dosing, respectively. Tissues including heart, liver, spleen, lung, kidney, and brain were dissected and washed with saline, then were blotted with filter paper and weighed accurately. The tissue samples were homogenized in ice-cold saline (1:3, w/v, g/mL). These tissue homogenates were then stored at −20°C and allowed to thaw at room temperature and vortex-mixed before processing. A 200 μL tissue sample was mixed with 5 μL IS solution (donepezil, 500 ng/mL). The mixture was deproteinized with 800 μL of acetonitrile, vortexed for 5 min, and then centrifuged at 17,000 × g for 10 min. An aliquot of 5 μL supernatant was then used for quantifying the content of CRL in each tissue by the LC-MS/MS.

[2] = tested on: human A549, SK-OV-3, SK-MEL-2, and HCT15 tumor cells; set-up: method as in Choi et al. (2007); conditions: ref Choi et al. (2007), read-out: 50% growth inhibition values; cited from earlier work
BALB/c male mice = experiment: Hepatotoxicity study in mice; assay type: in vivo
Procedure: Thirty-six BALB/c male mice were randomly divided into four groups (nine animals per group) including control group, low (125 mg/kg), middle (250 mg/kg), and high (500 mg/kg) three dosages group. CRL was dissolved firstly in DMSO and then prepared in 0.5% carboxymethyl cellulose sodium (CMC-Na) to make a suspension of 10, 20, and 30 mg/mL and the final concentration of DMSO in the suspension was no more than 5%. CRL was administered to the mice in different groups through oral gavage. Mice in control group were given equal volume 0.5% CMC-Na (contained 5% DMSO) solution with high dosage group. Blood samples were drawn from the orbital vein using cannulation under anesthesia at 24 h after oral administration. After centrifugation at 2,000 g for 15 min, the serum samples were stored at −20°C until analysis. Then mice were euthanized by decapitation after blood collection. Samples of liver were obtained and one part of which was fixed in 10% formaldehyde for observing histological change with optical microscope. The content of ALT and AST in mice serum was detected according the operation instruction of the kit.

[3] = mice, 24 h after oral administration of 125, 250, and 500 mg/kg, P > 0.05

Question: Which “Blood–brain barrier passage” value [1] does the source give for `CN1Cc2c(ccc3c2OCO3)[C@@]2(C)[C@@H](O)Cc3cc4c(cc3[C@@H]12)OCO4` [CRL, Corynoline] here?
Answer: could traverse the blood–brain barrier

Question: And the “Highest concentration level in brain” value ([1]; single dose, mean ± SD)?
Answer: 40.53 ± 20.50 µg/g

Question: And the “Highest concentration level in kidney” value ([1]; single dose, mean ± SD)?
Answer: 68.73 ± 46.89 µg/g

Question: And the “Highest concentration level in liver” value ([1]; single dose, mean ± SD)?
Answer: 92.91 ± 65.11 µg/g

Question: What about the “Highest concentration level in lung” value ([1]; single dose, mean ± SD) of the same compound?
Answer: 27.27 ± 22.17 µg/g

Question: And the “Highest concentration level in spleen” value ([1]; single dose, mean ± SD)?
Answer: 25.22 ± 18.67 µg/g

Question: What about the concentration at 2 h ([1]; male, BALB/c, mouse, plasma, oral, at 2 h post dosing, mean ± SD) of the same compound?
Answer: 18400 ± 14200 ng/mL

Question: And the Tmax ([1]; male, BALB/c, mouse, tissues (heart, liver, spleen, lung, kidney, brain), po, tissues, post dosing, read-out: Time to reach the maximum concentration)?
Answer: 2 h

Question: And the IC50 [2]?
Answer: 5.27 to 6.14 µM

Question: What about the “Histopathological examination of the liver” value (BALB/c male mice; mice, 125, 250, and 500 mg/kg oral, 24 h) of the same compound?
Answer: no pathological changes

Question: What about the “ALT in serum and livers compared with the control group” value (BALB/c male mice; [3]) of the same compound?
Answer: not significantly different

Question: What about the “AST in serum and livers compared with the control group” value (BALB/c male mice; [3]) of the same compound?
Answer: not significantly different

Question: What about the “Abnormal behaviors compared with control group” value (BALB/c male mice; mice, drug treatment groups 125–500 mg/kg oral, at about 10 min after administration, more pronounced with increasing dosage) of the same compound?
Answer: lying on the bedding and shivering

Question: What about the “Body temperature of most mice” value (BALB/c male mice; mice, drug treatment groups 125–500 mg/kg oral, more pronounced with increasing dosage) of the same compound?
Answer: lower than normal

Question: What about the “Hepatotoxicity / acute liver injury” value (BALB/c male mice; mice, experimental dosage 125–500 mg/kg oral) of the same compound?
Answer: no obvious hepatotoxicity

Question: What about the “Dead mice after drug administration (all dosage groups)” value (BALB/c male mice; mouse, in vivo) of the same compound?
Answer: three of them were dead

Question: What about the “Dead mice in high dosage group” value (BALB/c male mice; mouse, in vivo) of the same compound?
Answer: two mice

Question: What about the “Dead mice in middle dosage group” value (BALB/c male mice; mouse, in vivo) of the same compound?
Answer: one mouse
